# Data reported in patent US11999742B2, “Substituted pyrrolo[1,2-b]pyridazines as anthelmintics” (BOEHRINGER INGELHEIM VETMEDICA GMBH, priority 2021, dated 2024).
# How the values were obtained:
# [1] = tested on: Dirofilaria immitis (JYD-34 isolate); experiment: In vivo efficacy against resistant JYD-34 isolate in immune-deficient NSG mice; details: po, 1080 h, read-out: efficacy (live D. immitis larvae recovered), NSG mice, oral 25 mg/kg on Day 1, 15 and 30, count at Day 45
# [2] = tested on: Dirofilaria immitis (JYD-34 isolate); experiment: In vivo efficacy against resistant JYD-34 isolate in beagle dogs (Biological Example 6); details: necropsy day 120; for % Efficacy / Geometric Mean Live Heartworm Count: beagle dogs, JYD-34 isolate, 5 mg/kg oral, four times at monthly intervals (Days 0, 27, 55, 84); for efficacy against adult heartworm compared with Interceptor: beagles, oral 5 mg/kg four times at monthly intervals
# [3] = tested on: Dirofilaria immitis (JYD-34 isolate); experiment: In vivo efficacy against resistant JYD-34 isolate in beagle dogs (Biological Example 8); details: for efficacy at preventing infections with adult heartworm: beagles
# [4] = tested on: Dirofilaria immitis (JYD-34 isolate); experiment: In vivo efficacy at two dosages against resistant JYD-34 isolate in beagle dogs (Biological Example 7); details: for % Efficacy / Geometric Mean Live Heartworm Count: beagle dogs, JYD-34 isolate; for efficacy against adult heartworm: beagles
# [5] = beagle dogs, JYD-34 isolate, 5 mg/kg monthly for four months
# [6] = 5 mg/kg single dose monthly for four months
# [7] = 10 mg/kg (over 2 consecutive days, 5 mg/kg each) monthly for four months
# [8] = 5 mg/kg monthly for four months on two consecutive days
compound,measurement,setting,value
Cc1cc2c(C(C)(C)C)c(C(=O)N[C@H]3CCOc4ccccc43)cnn2c1-c1cc(Cl)cc(Cl)c1 [Compound A464],inhibition in vivo at 25 mg/kg,[1],70 to 90%
same,% Efficacy,[2],38.2%
same,Geometric Mean Live Heartworm Count,[2],16.7
same,efficacy against adult heartworm compared with Interceptor,[2],more effective than the commercial product Interceptor™
"Cc1cc2c(C(C)C)c(C(=O)N[C@H]3CCOc4ccccc43)cnn2c1-c1cc(Cl)cc(Cl)c1 [Compound A465, 7-(3,5-dichlorophenyl)-N-[(4S)-3,4-dihydro-2H-1-benzopyran-4-yl]-6-methyl-4-(propan-2-yl)pyrrolo[1,2-b]pyridazine-3-carboxamide]",inhibition in vivo at 25 mg/kg,[1],50 to 70%
Cc1cc2c(C(C)(C)C)c(C(=O)N[C@H]3CCOc4ccccc43)cnn2c1-c1cc(F)cc(F)c1F [Compound A471],% Efficacy,[2],39.0%
same,Geometric Mean Live Heartworm Count,[2],16.5
same,efficacy against adult heartworm compared with Interceptor,[2],more effective than the commercial product Interceptor™
Cc1cc2c(C(C)(C)C)c(C(=O)N[C@H]3CCOc4ccccc43)cnn2c1-c1cc(Cl)cc(Cl)c1Cl [Compound A472],% Efficacy,[3]; [5],100.0%
same,Live Heartworm Count (geo. mean),[3]; [5],0
same,efficacy at preventing infections with adult heartworm,[3]; 5 mg/kg body weight monthly for four months,100%
same,inhibition in vivo at 25 mg/kg,[1],> 90%
CN(C)c1c(C(=O)N[C@H]2CCOc3ccccc32)cnn2c(-c3cc(Cl)cc(Cl)c3Cl)c(Cl)cc12 [Compound A473],inhibition in vivo at 25 mg/kg,[1],> 90%
"Cc1cc2c(C(C)(C)C)c(C(=O)N[C@H]3CCOc4ccccc43)cnn2c1-c1cc(F)cc(Cl)c1Cl [Compound A481, 4-tert-butyl-7-(2,3-dichloro-5-fluorophenyl)-N-[(4S)-3,4-dihydro-2H-1-benzopyran-4-yl]-6-methylpyrrolo[1,2-b]pyridazine-3-carboxamide]",inhibition in vivo at 25 mg/kg,[1],70 to 90%
same,% Efficacy,[4]; [6],64.2%
same,Geometric Mean Live Heartworm Count,[4]; [6],11.3
same,% Efficacy,[4]; [7],98.0%
same,Geometric Mean Live Heartworm Count,[4]; [7],0.6
same,efficacy against adult heartworm,[4]; [8],about 98%
CC(C)(C)c1c(C(=O)N[C@H]2CCOc3ccccc32)cnn2c(-c3c(F)cc(F)cc3F)c(Cl)cc12 [Compound A484],inhibition in vivo at 25 mg/kg,[1],50 to 70%
CC(C)(C)c1c(C(=O)N[C@H]2CCOc3ccccc32)cnn2c(-c3cc(F)cc(F)c3F)c(Cl)cc12 [Compound A486],inhibition in vivo at 25 mg/kg,[1],70 to 90%
Cc1cc2c(C(C)C)c(C(=O)N[C@H]3CCOc4ccccc43)cnn2c1-c1cc(F)cc(Cl)c1Cl [Compound A489],inhibition in vivo at 25 mg/kg,[1],70 to 90%
Cc1cc2c(N3CCOCC3)c(C(=O)N[C@H]3CCOc4ccccc43)cnn2c1-c1cc(F)cc(F)c1F [Compound A491],inhibition in vivo at 25 mg/kg,[1],< 50%
"Cc1cc2c(N(C)C)c(C(=O)N[C@H]3CCOc4ccccc43)cnn2c1-c1cc(F)cc(Cl)c1Cl [Compound A493, 7-(2,3-dichloro-5-fluorophenyl)-N-[(4S)-3,4-dihydro-2H-1-benzopyran-4-yl]-4-(dimethylamino)-6-methylpyrrolo[1,2-b]pyridazine-3-carboxamide]",inhibition in vivo at 25 mg/kg,[1],> 90%
same,% Efficacy,[4]; [6],99.0%
same,Geometric Mean Live Heartworm Count,[4]; [6],0.3
same,% Efficacy,[4]; [7],100.0%
same,Geometric Mean Live Heartworm Count,[4]; [7],0
same,efficacy against adult heartworm,[4]; [8],100%
same,efficacy against adult heartworm,[4]; one single dosage of 5 mg/kg monthly for four months,99%
Cc1cc2c(C(C)(C)C)c(C(=O)NN3CCOc4ccccc43)cnn2c1-c1cc(F)cc(Cl)c1Cl [Compound A495],inhibition in vivo at 25 mg/kg,[1],50 to 70%
Cc1cc2c(N3CCOCC3)c(C(=O)N[C@H]3CCOc4ccccc43)cnn2c1-c1cc(Cl)cc(Cl)c1Cl [Compound A501],inhibition in vivo at 25 mg/kg,[1],70 to 90%
"CC(C)(C)c1c(C(=O)N[C@H]2CCOc3ccccc32)cnn2c(-c3cc(F)cc(Cl)c3Cl)c(Cl)cc12 [Compound A502, 4-tert-butyl-6-chloro-7-(2,3-dichloro-5-fluorophenyl)-N-[(4S)-3,4-dihydro-2H-1-benzopyran-4-yl]pyrrolo[1,2-b]pyridazine-3-carboxamide]",inhibition in vivo at 25 mg/kg,[1],70 to 90%
Cc1cc2c(N3CC(F)(F)C3)c(C(=O)N[C@H]3CCOc4ccccc43)cnn2c1-c1cc(F)cc(Cl)c1Cl [Compound A504],inhibition in vivo at 25 mg/kg,[1],> 90%
O=C(N[C@H]1CCOc2ccccc21)c1cnn2c(-c3cc(F)cc(Cl)c3Cl)c(Cl)cc2c1N1CC(F)(F)C1 [Compound A507],inhibition in vivo at 25 mg/kg,[1],> 90%
CC(C)(C)c1c(C(=O)N[C@H]2CCOc3ccccc32)cnn2c(-c3cc(Cl)cc(Cl)c3Cl)c(Cl)cc12 [Compound A522],inhibition in vivo at 25 mg/kg,[1],> 90%
Cc1cc2c(C(C)(C)C)c(C(=O)N[C@H]3CCOc4ccccc43)cnn2c1-c1cc(F)cc(F)c1F [Compound A566],inhibition in vivo at 25 mg/kg,[1],70 to 90%
milbemycin oxime [reference compound],efficacy at preventing infections with adult heartworm,[3]; Interceptor (milbemycin oxime) positive control group,16.6%
